Data taken from patent publication US4039652A, “Column method of immunoassay employing an immobilized binding partner” (Miles Laboratories, Inc., priority 1973, dated 1977).
Each block holds one molecule with its values, some of them ahead of it.

Assays:
digitoxin antibodies = experiment: Column radioimmunoassay for digitoxin, Example 4; assay type: binding, rabbit; conditions: control = 100%, PBS buffer with 0.1% Tween 20
Experimental: 90 mg of digitoxin was suspended in 4 ml of ethanol at ambient temperature. 4 ml of a 0.1M sodium metaperiodate solution was added dropwise. The resulting solution was stirred for 25 minutes and 4 drops of 0.1M ethylene glycol was added. This solution was slowly added to 130 mg of bovine serum albumin in 4 ml of water previously adjusted to pH 9.5 with 5% K2 CO3. The pH was maintained between 9.0 and 9.5 with 5% K2 CO3. After 45 minutes, 0.05 g of NaBH4 in 4 ml of water was added. After 3 hours the pH was lowered to 6.5 with 1M formic acid. After 1 hour, the pH was raised to pH 8.5 with 1M NH4 OH and the mixture was dialyzed against distilled water overnight at 4° C. The next day, the suspension was centrifuged for 2 hours at 1500 rpm. The supernatant was concentrated to 6 ml in an Amicon U-2 ultrafilter, available from Amicon Corporation, Lexington, Massachusetts, and lyophilized.
The same procedure as described in Example 3 was followed except that the digitoxin-bovine serum albumin conjugate was prepared according to the method described in procedure a. above and this conjugate was dissolved in a few drops of dilute NaOH before being mixed with the PBS buffer.
The same procedure as described in Example 3 was followed.
The same procedure as described in Example 3 was followed except that the columns were equilibrated with 10 ml of PBS buffer containing 0.1% Tween 20, a detergent available from the Atlas Powder Company, Wilmington, Delaware, and that PBS buffer containing 0.1% Tween 20 was used in place of PBS buffer. The standard digitoxin solutions were prepared to the following concentrations: 5 ng/ml, 10 ng/ml, 20 ng/ml, 30 ng/ml, 40 ng/ml, and 50 ng/ml.
The results were as follows (with % bound being calculated based on setting 100% bound as the % bound of the control): […]

digoxin antibodies = experiment: Column radioimmunoassay for digoxin (competition with 3-0-succinyl digoxigenin tyrosine 125I); assay type: binding, rabbit; conditions: control = 100%, 30 + 30 minutes, pH 7.0
Experimental: 400 mg of digoxin was suspended in 20 ml of absolute ethanol at ambient temperature. 0.45 g of sodium metaperiodate in 20 ml of water was added dropwise with stirring. After 25 minutes, 0.5 ml of 1M ethylene glycol was added. Five minutes later, this reaction mixture was added dropwise with stirring to 560 mg of bovine serum albumin in 20 ml of water previously adjusted to pH 9.5 with 5% K2 CO3. The pH was maintained between 9.0 and 9.5 by the dropwise addition of 5% K2 CO3. After 45 minutes 0.3 g of sodium borohydride in 20 ml of water was added. Three hours later, the pH was lowered to 6.5 with 1M formic acid. After 1 hour, the pH was raised to 8.5 with 1M NH4 OH. The entire reaction mixture was then dialyzed against distilled water overnight at 4° C. The next day, the pH was lowered to 4.5 with 0.1N HCl. After 1 hour at ambient temperature and 3 hours at 4° C., the suspension was centrifuged for 1 hour at 1500 rpm. The precipitate was dissolved in 21 ml of 0.15M NaHCO3, dialyzed against distilled water for 4 days, and lyophilized.
Rabbits were injected with inocula consisting of a 50/50 mixture of 4 mg/ml digoxin-bovine serum albumin conjugate, prepared according to the method described in procedure a., in 0.0075M phosphate-0.15M NaCl buffer (pH 7.0) and Freund's complete adjuvant. Four sites along the neck and back of the animals and each footpad were injected with 0.1 ml of this mixture. This procedure was repeated on the first and third weeks. Also, every second week the rabbits were injected intramuscularly with 0.4 ml of the inoculum. At one month intervals, ear bleedings were taken.
One (1.0) gram of CNBr-activated Sepharose 4B available from Pharmacia AB, Uppsala, Sweden, was added to 200 ml of 0.001N HCl, mixed for 15 minutes, and filtered under vacuum. The swollen Sepharose 4B was then washed with 200 ml of PBS buffer (0.0075 M phosphate-0.15M NaCl, pH 7.0) and resuspended in 3.0 ml of PBS buffer. Whole, unfractionated, diluted antiserum from procedure b. was added with stirring. The reaction mixture was stirred for 2 hours at ambient temperature and then for 22 hours at 4° C. The antibody-coupled Sepharose 4B suspension was washed with 400 ml of PBS buffer and an equal volume of PBS buffer containing 0.1% NaN3 was added. This mixture was in turn diluted with the addition of a 50% suspension of Sepharose 4B in distilled water to give a final dilution of antibody-coupled Sepharose 4B which would bind about half of the radioactive labeled antigen following procedure d. below where the fluid sample tested contained no digoxin. Two (2.0) ml volumes of the diluted antibody-coupled Sepharose 4B were added to 3 ml plastic Stylex syringes, available from Pharmaseal Laboratories, Glendale, California, fitted with polyethylene support disks to give 1 ml Sepharose 4B columns.
The columns were then equilibrated with 10 ml volumes of PBS buffer and allowed to drain. Standard digoxin solutions were prepared for the following digoxin concentrations: 0.5 ng/ml, 1.0 ng/ml, 2.0 ng/ml, 3.0 ng/ml, 4.0 ng/ml, and 5.0 ng/ml. A control containing no digoxin and the six digoxin standards were added to columns prepared according to procedure c. above in 0.5 ml volumes and allowed to incubate for 30 minutes. The reference sample containing 3-0-succinyl digoxigenin tyrosine ^125 I solution was then added to each column in 0.5 ml portions and allowed to incubate for 30 minutes. The columns were then counted using a Gammacord gamma counter. The columns were washed three times with 3.0 ml volumes of PBS buffer and counted again. The results were as follows (with % bound being calculated based on setting 100% as the % bound of the control): […]

HPL antibodies [1] = experiment: Column saturation radioimmunoassay for human placental lactogen (competition with 125I-HPL), Example 2; assay type: binding, rabbit; conditions: control = 100%, 30 minutes, pH 8.0
Experimental: Rabbits were injected with priming inocula consisting of a 50/50 mixture of 2.8 mg/ml HPL antigen in physiological saline solution (0.9%) and Freund's complete adjuvant. Each footpad was injected with 0.2 ml of this mixture. On days 21, 23, 56, 58, 91, 93, 126 and 128, 0.5 ml of booster inocula per day was injected intravenously into the animals. The booster inocula consisted of 0.7 mg/ml HPL antigen in physiological saline solution. Test bleedings were made on days 36 and 70, and on day 140 the animals were exsanguinated
The columns were prepared as in Example 1 using whole unfractionated HPL antiserum from procedure a. above.
The procedure as in Example 1c. was followed except that the borate-human serum albumin buffer was prepared to pH 8.0, the incubation times were 30 minutes, and the reference sample contained HPL labeled with ^125 I. […] The results were as follows (with % bound being calculated based on setting 100% bound as the % bound of the control): […]

HPL antibodies [2] = experiment: Column enzyme immunoassay for HPL with peroxidase labeled HPL, Example 6; assay type: binding; conditions: for % Color Bound: control = 100; for OD460: optical density of washings at 460 nm (control 1.2)
Experimental: HPL was labeled with peroxidase according to the method described in Immunochemistry 6: 43(1969) with the following modifications: 10 mg (HPL and 10 mg horseradish peroxidase were dissolved in 1.4 ml of 0.05M carbonate buffer (pH 9), 0.05 ml of 3% glutaraldehyde solution was added to the mixture. The mixture was then rotated at ambient temperature for 90 minutes and then dialyzed against 128 ml of 0.1M borate buffer (pH 8) with several buffer changes.
The same procedure as in Example 1b was followed.
The packed columns were equilibrated by adding 20 ml portions of a borate buffer (pH 9) to the columns and allowing them to drain. The borate buffer was prepared as in Example 1c. HPL standards were prepared for the following HPL concentrations 1000 ng/ml and 62 ng/ml. A control containing no HPL and the two HPL standards were added to columns, prepared according to procedure b above in 0.5 ml volumes and allowed to incubate for 25 minutes. The reference sample containing peroxidase labeled HPL, prepared as in procedure a. above, was then added to each column in 0.5 ml portions and allowed to incubate for 25 minutes. The columns were washed with 10 ml volumes of 0.1M borate buffer (pH 8) followed by 3 ml volumes of 0.1M phosphate buffer (pH 6). A substrate-indicator solution, prepared by mixing 0.28 ml of 0.03% H2 O2 in water, 0.1 ml of 0.25% 3,3'-dimethylbenzidine, and 0.12 ml of 0.1M phosphate buffer (pH 6), was added to each column and allowed to incubate for 10 minutes. The columns were each washed with a 3 ml of volume of 0.1N HCl and the optical density (OD) of the washings were read at 460 nm with the following results: […]

Molecule: C[C@H]1O[C@@H](O[C@H]2[C@@H](O)C[C@H](O[C@H]3[C@@H](O)C[C@H](O[C@H]4CC[C@@]5(C)[C@H](CC[C@@H]6[C@@H]5CC[C@]5(C)[C@@H](C7=CC(=O)OC7)CC[C@]65O)C4)O[C@@H]3C)O[C@@H]2C)C[C@H](O)[C@@H]1O [Digitoxin, digitoxin]
- % Bound (digitoxin antibodies; Digitoxin concentration 5.0 ng/ml): 83%
- % Bound (digitoxin antibodies; Digitoxin concentration 10.0 ng/ml): 73.5%
- % Bound (digitoxin antibodies; Digitoxin concentration 20.0 ng/ml): 64%
- % Bound (digitoxin antibodies; Digitoxin concentration 30.0 ng/ml): 56.6%
- % Bound (digitoxin antibodies; Digitoxin concentration 40.0 ng/ml): 50.2%
- % Bound (digitoxin antibodies; Digitoxin concentration 50.0 ng/ml): 42%

Molecule: C[C@H]1O[C@@H](O[C@H]2[C@@H](O)C[C@H](O[C@H]3[C@@H](O)C[C@H](O[C@H]4CC[C@@]5(C)[C@H](CC[C@@H]6[C@@H]5C[C@@H](O)[C@]5(C)[C@@H](C7=CC(=O)OC7)CC[C@]65O)C4)O[C@@H]3C)O[C@@H]2C)C[C@H](O)[C@@H]1O [Digoxin, digoxin]
- % Bound (digoxin antibodies; Digoxin concentration 0.5 ng/ml): 92%
- % Bound (digoxin antibodies; Digoxin concentration 1.0 ng/ml): 79.5%
- % Bound (digoxin antibodies; Digoxin concentration 2.0 ng/ml): 60.2%
- % Bound (digoxin antibodies; Digoxin concentration 3.0 ng/ml): 49.0%
- % Bound (digoxin antibodies; Digoxin concentration 4.0 ng/ml): 41.3%
- % Bound (digoxin antibodies; Digoxin concentration 5.0 ng/ml): 34.7%

- % Color Bound (HPL antibodies [2]; HPL concentration 62 ng/ml): 63%
- OD460 (HPL antibodies [2]; HPL concentration 62 ng/ml): 0.96
- % Color Bound (HPL antibodies [2]; HPL concentration 1000 ng/ml): 35%
- OD460 (HPL antibodies [2]; HPL concentration 1000 ng/ml): 0.78
B1: HPL: human placental lactogen (HPL) (protein, UniProt P0DML2 27-217, looked up)
Chorionic somatomammotropin …: VQTVPLSRLFDHAMLQAHRAHQLAIDTYQEFEETYIPKDQKYSFLHDSQTSFCFSDSIPTPSNMEETQQKSNLELLRISLLLIESWLEPVRFLRSMFANNLVYDTSDSDDYHLLKDLEEGIQTLMGRLEDGSRRTGQILKQTYSKFDTNSHNHDALLKNYGLLYCFRKDMDKVETFLRMVQCRSVEGSCGF
- % Bound (labeled HPL) (HPL antibodies [1]; HPL concentration 1 ng/ml): 98%
- % Bound (labeled HPL) (HPL antibodies [1]; HPL concentration 15 ng/ml): 70%
- % Bound (labeled HPL) (HPL antibodies [1]; HPL concentration 62 ng/ml): 42%
- % Bound (labeled HPL) (HPL antibodies [1]; HPL concentration 1000 ng/ml): 9%
